From patent US4738803A, “Amino acid derivatives and their use as antidepressives and hypotensive agents” (priority 1981, dated 1988)
Where two headings read alike, the source gives them in different places.

Legend:
enkephalinase = experiment: Dosage of enkephalinasic (enkephalin dipeptidylcarboxypeptidasic) activity, effect of the inhibitors (striatal membrane fraction); type: biochemical, rat or mouse; details: 10 nM leucine-enkephalin ^3H, 0.1 mM puromycine, pH 7.4, 25° C, 15 min; read-out: 50% inhibitory concentration
Experimental: (I) Dosage of the "enkephalinasic" activity (enkephalin dipeptidylcarboxypeptidasic) and determination of the effect of the inhibitors
The enzyme preparation employed is a membrane fraction from the striatum of the rat or mouse.
This fraction is obtained by homogenization at 4° C. in 20 volumes of Tris-Hl buffer 0.05M (pH 7.4) followed by two successive centrifugations (1000 g×min. and 200,000 g×min.) at the end of which the sediment of the second centrifugation is retained. It is washed by resuspension in 10 ml of the buffer followed by centrifugation (200,000 g×min.) and the resulting sediment is in turn washed superficially to complete the removal soluble enzymes. The resulting membrane fraction is taken up into the buffer at 4° C. to obtain a suspension comprising about 1.5 mg of proteins per ml.
An aliquot sample (50 μl) of the membrane suspension is then incubated in a final volume of 100 μl at 25° C. in the presence of 10 nM leucine-enkephalin ^3 H (39 Ci/mmole), previously purified by column chromatography over Porapak Q(100-120 mesh, Waters Assoc.) and 0.1 mM puromycine, an aminopeptidase inhibitor. The incubation time is generally set at 15 min. so as to determine the initial rate of formation of tripeptide Tyr-Gly-Gly-^3 H caracteristic of the enkephalin dipeptidylcarboxypeptidasic (enkephalinasic) activity. The reaction is terminated by the addition of 25 μl of 0.2N HCl and the tripeptide is isolated by column chromatography over Polopak Q or on a thin layer of silica, according to the methods described by Malfroy et al (B. Malfroy, J. P. Swerts, C. Llorens and J. C. Schwartz, Neuro-Science Letters, 11, 329, 1979).
The results obtained with either method have always been consistent.
Determination of the radioactivity of the tripeptide is effected by liquid scintillation spectrometry.
The effect of the inhibitors is established by experiments with increasing concentrations of such materials, which leads to the determination of the 50% inhibitory concentrations calculated by means of data according to the method of Parker and Waud (J. Pharmacol. Exper. Ther. 177, 1, 1971). In some cases, the competitive nature of the inhibition was established by incubation experiments with a fixed concentration of the inhibitor and increasing concentrations of the substrate.

[1] = tested on: licking reflex of mice on a plate heated at 55° C; experiment: Hot plate test: potentiation of the antalgic effect of D Ala2 Met Enkephalin; type: in vivo; details: for increase in the licking time with respect to animals treated with DAla2 Met Enkephalin (0.3γ intraventricular): 30 mg/kg intravenous; for antagonism of the potentiating effect by Naloxone / potentiation of the effect of a subactive dosage (0.3γ) of D Ala2 Met Enkephalin: 30γ, in words; for potentiation of the effect of a subactive dosage (0.3γ) of D Ala2 Met Enkephalin: p<0.05
Experimental: (§1) Licking reflex of mice on a plate heated at 55° C. according to the method of Jacob et co-workers (Arch. Int. Pharmacodyn. 122, 287-300, 1959: 133, 296-300, 1961).
(a) Potentiation of the antalgic effect of DAla2 Met Enkephalin:
(α) By the intraventricular route (ivt):
(β) By the intravenous route:
When administered by the intravenous route, the derivatives No. 2, 30 and 63 at the dose of 30 mg/kg produce a 100% increase in the licking time with respect to animals treated with DAla2 Met Enkephalin (0.3γ intraventricular).

blood pressure = details: 10 mg/kg intravenous; in words
Text: (VI) Hypotensive Activity
Specific enkephalin-potentiating activity, (Laubie M. Schmith H., Vincent M., Remon D. Central cardiovascular effects of Morphinometic peptides in dogs. European Journal of Pharmacology, vol. 46, 67-71, 1977).

[2] = tested on: phenylbenzoquinone-induced pain; experiment: Phenylbenzoquinone or "writhing" test; type: in vivo, mouse; details: for protection from phenylbenzoquinone-induced pain: p<0.01 versus controls
Text: (3) Phenylbenzoquinone or "writhing" test according to the method of Siegmund and co-workers (Proc. Soc. Expert Biol. Med. 1957, 95, 729-731).
Here again, if the antinociceptive effects of these compounds are compared with those of Thiorphan, a selective enkephalinase-inhibitor, a distinctly greater maximum effect is observed. […] This more pronounced analgesic effect is attributable to an improved protection of the endogenic opioid peptides, in relation with the inhibition not only of the enkephalinase, but also of the aminopeptidases involved in their hydrolysis.

[3] = tested on: licking reflex of mice on a plate heated at 55° C; experiment: Hot plate test: specific antalgic effect; type: in vivo; details: for antalgic effect in the hot plate test: 55° C, intravenous, in words; for ED50: hot plate 55° C, i.v.
Experimental: as §1
(b) Specific antalgic effect
By the intravenous route.

[4] = tested on: withdrawal of the tail of mice; experiment: Withdrawal of the tail immersed in water heated to 48° C; type: in vivo
Experimental: (2) Test in mice of the withdrawal of the tail immersed in water heated to 48° C. according to the method of Sewell and Spencer (Neuropharmacology, 1976, 15, p. 683-688).

immobile periods of mice = details: 1 mg/kg i.v.; p<0.001; in words
Text: Forced swimming or "Mice Despair" test according to Porsolt's method.
This test is representative of an antidepressive effect.

[5] = tested on: (Met^5) enkephalin liberated by depolarisation of striatum sections; experiment: Protection of endogenic enkephalins liberated by depolarisation of striatum sections; type: cell-based, rat; details: for (Met^5) liberated enkephalin: 50 mM KCl, no inhibitor: 120 ± 25
Experimental: (II) Protection of the endogenic […] liberated by depolarisation of the brain sections
Stratium sections of the rat are incubated in a medium of Krebs-Ringer and the (Met^5) enkephalin liberated by addition of 50 mM KCl is evaluated by radioimmunologic dosage (Patey and Coll., Science, 1981, 212, 1153-1155).
The higher protection of the liberated enkephalins afforded by these compounds is thence attributed to the inhibition of peptidases (probably aminopeptidases) other than those which are sensitive to thiorphan.

mice = experiment: Subacute toxicity, intraperitoneal, three weeks
Experimental: The derivative 63 was administered by the intraperitoneal route for three weeks to mice at the dose of 50 mg/kg three times a day (150 mg/kg/day).

[6] = 30 γ/mouse ivt, D Ala2 Met Enkephalin 0.3 γ/mouse
[7] = 30 mg/kg intravenous, DAla2 Met Enkephalin 10 to 30γ/mouse ivt 15 minutes later

Work on `O=CN(O)CC(Cc1ccccc1)NC(=O)CC(=O)NCc1ccccc1` (stereo not drawn) [Derivative 71] yielded an IC50 (enkephalinase) of 200 nM.
For “N-[2-(N-hydroxy β-trifluoroethyl carboxamido)3-phenyl propanoyl]-glycine [Derivative 53]”, the IC50 (enkephalinase) was 50 nM, the “increase in the licking time with respect to animals treated with DAla2 Met Enkephalin (0.3γ intraventricular)” value (shortened to “increase … (0.3γ intraventricular)”) [1] was 100% and the “reduction in the blood pressure” value (blood pressure) was “reduction in the blood pressure”. The “protection from phenylbenzoquinone-induced pain” value (“protection” below) ([2]; 1 mg/kg i.v.) was “protect the treated animals from phenylbenzoquinone-induced pain”, the “antagonism of the protective effect by Naloxone” value ([2]; in words) was “antagonized by Naloxone” and the “antalgic effect in the hot plate test” value [3] was “have an antalgic effect”. For the same compound, the ED50 [3] was 3 mg/kg, the “potentiation of DAla2 Met Enkephalin” value ([4]; 5 mg/kg) was “also observed” and the “duration (in seconds) of the immobile periods with respect to the controls” value (immobile periods of mice) was “significantly reduces”.
“N-[2-(N-hydroxy carbamoyl 3-phenyl propanoyl]-glycine [Derivative 32]” showed an IC50 (enkephalinase) of 5 nM.
“N-phorphoryl L-alanine-thioproline trifluoroethyl ester [Derivative 21]” was tested, and the IC50 (enkephalinase) was 8 nM, the “antagonism of the potentiating effect by Naloxone” value ([1]; intraventricular) was “antagonised by Naloxone” and the “potentiation of the effect of a subactive dosage (0.3γ) of D Ala2 Met Enkephalin” value ([1]; intraventricular) was “significantly potentiated”. For the same compound, the “% increase in the licking time with respect to animals treated with D Ala2 Met enkephalin” value (“% increase in the licking time” below) ([1]; 30 γ/mouse ivt + D Ala2 Met Enkephalin 0.3 γ/mouse + Naloxone 10 mg/kg s.c.) was 18%, the “% increase in the licking time” value [1, 6] was 350% and the “(Met^5) liberated enkephalin” value ([5]; added inhibitor 10^-6 M) was 550 ± 40 pmol/g/min.
With `COC(=O)CNC(=O)[C@H](Cc1ccccc1)NP(=O)(O)O` [Derivative 2, N-phosphoryl L-phenylalanine-glycine methyl ester] the IC50 (enkephalinase) was 70 nM, the “increase … (0.3γ intraventricular)” value [1] was 100% and the “protection” value ([2]; 15 mg/kg i.v.) was “protect the treated animals from phenylbenzoquinone-induced pain”. The “antagonism of the protective effect by Naloxone” value ([2]; in words) was “antagonized by Naloxone”, the “antalgic effect in the hot plate test” value [3] was “have an antalgic effect” and the ED50 ([3]; Mus musculus, iv, read-out: ED50) was 30 mg/kg. For the same compound, the “potentiation of DAla2 Met Enkephalin” value [4, 7] was “potentiate very significantly”.
For “N-(N-benzyloxy 3-formamido 2-benzyl propnaoyl)-glycine methyl ester [Derivative 39]”, the IC50 (enkephalinase) was 3 nM, the “% increase in the licking time” value [1, 6] was 300% and the “(Met^5) liberated enkephalin” value ([5]; added inhibitor 10^-7 M) was 630 ± 50 pmol/g/min. For the same compound, the ED50 [3] was 25 mg/kg.
For `O=C(O)CNC(=O)C(CS)Cc1ccccc1` (stereo not drawn) [Thiorphan, reference compound], the “(Met^5) liberated enkephalin” value ([5]; added inhibitor 10^-7 M) was 280 ± 30 pmol/g/min, the “recovery of the pentapeptide” value ([5]; in words, presence of thiorphan) was “approximately doubled” and the “elimination of the abdominal stretchings of the mouse” value ([2]; in words, thiorphan even at a heavy dose) was “never completely eliminates the abdominal stretchings”.
In the case of `COC(=O)CC(=O)NC(Cc1ccccc1)NP(=O)(O)O` (stereo not drawn) [Derivative 4, N-phosphoryl, N'-(2-methoxycarbonylacetyl) 1,1-diamino 2-phenyl ethane], the IC50 (enkephalinase) is reported as 100 nM.
“N-(2-bensyloxyamino 3-phenyl propanoyl)-glycine isoamylamide [Derivative 22]” was tested, and the IC50 (enkephalinase) was 100 nM, the “increase … (0.3γ intraventricular)” value [1] was 100% and the “protection” value ([2]; 18 mg/kg i.v.) was “protect the treated animals from phenylbenzoquinone-induced pain”. The “antagonism of the protective effect by Naloxone” value ([2]; in words) was “antagonized by Naloxone”, the “antalgic effect in the hot plate test” value [3] was “have an antalgic effect” and the ED50 [3] was 18 mg/kg. For the same compound, the “potentiation of DAla2 Met Enkephalin” value [4, 7] was “potentiate very significantly”.
In the case of `O=CN(O)CC(Cc1ccccc1)C(=O)NCC(=O)NCc1ccc(F)cc1` (stereo not drawn) [Derivative 63, N-(N-hydroxy 3-formamido 2-benzylpropanoyl)-glycine p-fluoro benzylamide], the “weight increase rate and signs of toxicity” value (mice; 50 mg/kg i.p. three times a day (150 mg/kg/day)) is reported as “did not exhibit any change in the weight increase rate or any sign of toxicity” and the “weight of the organs and anatomic-pathologic examination” value (mice; 50 mg/kg i.p. three times a day, versus solvent controls) is reported as “no difference”.
For “D Ala2 Met Enkephalin [reference compound]”, the “activity of D Ala2 Met Enkephalin alone” value ([1]; 0.3 γ/mouse, intraventricular) was “inactive in itself”.
With “N-[2-(N-hydroxy carbamoyl) 3-phenyl propanoyl]-glycine methyl ester [Derivative 30]” the IC50 (enkephalinase) was 3 nM, the “antagonism of the potentiating effect by Naloxone” value ([1]; intraventricular) was “antagonised by Naloxone” and the “potentiation of the effect of a subactive dosage (0.3γ) of D Ala2 Met Enkephalin” value ([1]; intraventricular) was “significantly potentiated”. The “% increase in the licking time” value [1, 6] was 320% and the “(Met^5) liberated enkephalin” value ([5]; added inhibitor 10^-7 M) was 600 ± 30 pmol/g/min.
In the case of `O=CN(O)CC(Cc1ccccc1)NC(=O)CC(=O)O` (stereo not drawn) [Derivative 69], the IC50 (enkephalinase) is reported as 7 nM.
